The experiment addresses T1, human TLR8 (Homo sapiens, UniProt Q9NR97).
T1 sequence (Q9NR97 27-1041): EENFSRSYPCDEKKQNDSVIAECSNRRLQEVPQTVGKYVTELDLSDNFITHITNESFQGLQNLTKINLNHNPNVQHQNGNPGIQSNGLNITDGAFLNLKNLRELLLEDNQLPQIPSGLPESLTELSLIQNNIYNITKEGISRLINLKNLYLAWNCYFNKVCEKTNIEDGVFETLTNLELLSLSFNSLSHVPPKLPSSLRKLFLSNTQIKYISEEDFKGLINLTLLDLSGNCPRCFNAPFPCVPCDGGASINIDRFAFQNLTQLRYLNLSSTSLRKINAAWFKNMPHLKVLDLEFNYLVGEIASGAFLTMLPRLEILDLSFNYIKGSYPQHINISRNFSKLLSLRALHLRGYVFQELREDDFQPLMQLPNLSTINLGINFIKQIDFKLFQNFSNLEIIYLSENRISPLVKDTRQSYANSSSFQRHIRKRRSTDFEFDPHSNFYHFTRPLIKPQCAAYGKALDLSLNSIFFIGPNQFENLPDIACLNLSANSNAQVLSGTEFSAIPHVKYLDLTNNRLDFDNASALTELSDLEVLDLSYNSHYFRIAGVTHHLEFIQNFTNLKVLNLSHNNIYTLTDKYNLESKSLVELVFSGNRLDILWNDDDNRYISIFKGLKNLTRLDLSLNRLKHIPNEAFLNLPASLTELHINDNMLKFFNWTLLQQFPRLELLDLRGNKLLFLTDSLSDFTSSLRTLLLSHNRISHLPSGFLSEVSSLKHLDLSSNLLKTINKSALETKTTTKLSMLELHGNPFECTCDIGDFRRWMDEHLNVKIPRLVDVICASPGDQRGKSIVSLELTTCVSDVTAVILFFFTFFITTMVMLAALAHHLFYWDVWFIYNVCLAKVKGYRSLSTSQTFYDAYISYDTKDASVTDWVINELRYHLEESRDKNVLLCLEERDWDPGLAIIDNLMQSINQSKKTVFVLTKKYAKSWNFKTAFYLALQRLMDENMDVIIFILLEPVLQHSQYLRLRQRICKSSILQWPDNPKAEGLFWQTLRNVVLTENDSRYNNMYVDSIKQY
Nature of the experiment: HEK293-Blue-hTLR-8 cells assay. Format: cell-based. The following applies: HEK293-Blue-hTLR8 cells, R848 stimulation, 20 hrs, SEAP reporter; read-out: HEK/hTLR8 IC50. An excerpt:
HEK293-Blue-hTLR-8 cells assay:
A stable HEK293-Blue-hTLR-8 cell line was purchased from InvivoGen (Cat. #: hkb-htlr8, San Diego, California, USA). These cells were originally designed for studying the stimulation of human TLR8 by monitoring the activation of NF-κB. A SEAP (secreted embryonic alkaline phosphatase) reporter gene was placed under the control of the IFN-β minimal promoter fused to five NF-κB and AP-1-binding sites. The SEAP was induced by activating NF-κB and AP-1 via stimulating HEK-Blue hTLR8 cells with TLR8 ligands. Therefore the reporter expression was declined by TLR8 antagonist under the stimulation of a ligand, such as R848, for incubation of 20 hrs. The cell culture supernatant SEAP reporter activity was determined using QUANTI-Blue™kit (Cat. #: rep-qb1, Invivogen, San Diego, Ca, USA) at a wavelength of 640 nm, a detection medium that turns purple or blue in the presence of alkaline phosphatase.
HEK293-Blue-hTLR8 cells were incubated at a density of 250,000˜450,000 cells/mL in a volume of 170 μL in a 96-well plate in Dulbecco's Modified Eagle's medium (DMEM) containing 4.5 g/L glucose, 50 U/mL penicillin, […], […], 2 mM L-glutamine, 10% (v/v) heat-inactivated fetal bovine serum with addition of 20 μL test compound in a serial dilution in the presence of final DMSO at 1% and 10 μL of 60 uM R848 in above DMEM, perform incubation under 37° C. in a CO2 incubator for 20 hrs. Then 20 μL of the supernatant from each well was incubated with 180 μL Quanti-blue substrate solution at 37° C. for 2 hrs and the absorbance was read at 620-655 nm using a spectrophotometer. The signaling pathway that TLR8 activation leads to downstream NF-κB activation has been widely accepted, and therefore similar reporter assay was modified for evaluating TLR8 antagonist.

As to `[2H]c1ccc2c(N3C[C@H](CN4CC5(C4)OCc4cc(N6CC(C)(N)C6)cnc45)O[C@H](C)C3)ccc(C#N)c2n1` [Example 21, 5-[(2S,6R)-2-[[3-(3-amino-3-methyl-azetidin-1-yl)spiro[5H-furo[3,4-b]pyridine-7,3′-azetidine]-1′-yl]methyl]-6-methyl-morpholin-4-yl]-2-deuterio-quinoline-8-carbonitrile], the IC50 turned out to be 17 nM. In the case of `[2H]c1ccc2c(N3C[C@H](CN4CC5(C4)OCc4cc(N6CC(N)C6)ncc45)O[C@H](C)C3)ccc(C#N)c2n1` [Example 32, 5-[(2S,6R)-2-[[6-(3-aminoazetidin-1-yl)spiro[1H-furo[3,4-c]pyridine-3,3′-azetidine]-1′-yl]methyl]-6-methyl-morpholin-4-yl]-2-deuterio-quinoline-8-carbonitrile] it was 22 nM; in that of `C[C@@H]1CN(c2ccc(C#N)n3ncc(F)c23)C[C@H](CN2CC3(C2)OCc2cc(N4CC(C)(N)C4)ncc23)O1` [Example 24, 4-[(2S,6R)-2-[[6-(3-amino-3-methyl-azetidin-1-yl)spiro[1H-furo[3,4-c]pyridine-3,3′-azetidine]-1′-yl]methyl]-6-methyl-morpholin-4-yl]-3-fluoro-pyrazolo[1,5-a]pyridine-7-carbonitrile], 59 nM; in that of `[2H]c1ccc2c(N3C[C@H](CN4CC5(C4)OCc4cc(N6CCNCC6)ccc45)O[C@H](C)C3)ccc(C#N)c2n1` [Example 18, 2-deuterio-5-[(2R,6S)-2-methyl-6-[(6-piperazin-1-ylspiro[1H-isobenzofuran-3,3′-azetidine]-1′-yl)methyl]morpholin-4-yl]quinoline-8-carbonitrile], 10 nM.

For `C[C@@H]1CN(c2ccc(C#N)n3ncc(F)c23)C[C@H](CN2CC3(C2)OCc2cc(N4C[C@H](N)[C@@H](O)C4)ccc23)O1` [Example 10, 4-[(2S,6R)-2-[[6-[(3S,4S)-3-amino-4-hydroxy-pyrrolidin-1-yl]spiro[1H-isobenzofuran-3,3′-azetidine]-1′-yl]methyl]-6-methyl-morpholin-4-yl]-3-fluoro-pyrazolo[1,5-a]pyridine-7-carbonitrile], the IC50 is 142 nM.

Take `[2H]c1ccc2c(N3C[C@H](CN4CC5(C4)OCc4cc(N6C[C@H]7NCCO[C@@H]7C6)ccc45)O[C@H](C)C3)ccc(C#N)c2n1` [Example 17, 5-[(2S,6R)-2-[[6-[(4aR,7aR)-3,4,4a,5,7,7a-hexahydro-2H-pyrrolo[3,4-b][1,4]oxazin-6-yl]spiro[1H-isobenzofuran-3,3′-azetidine]-1′-yl]methyl]-6-methyl-morpholin-4-yl]-2-deuterio-quinoline-8-carbonitrile]: the IC50 is 9 nM.

In the case of `C[C@@H]1CN(c2ccc(C#N)n3ncc(F)c23)C[C@H](CN2CC3(C2)OCc2cc(N4CC5(CN(C)C5)C4)cnc23)O1` [Example 22, 3-fluoro-4-[(2R,6S)-2-methyl-6-[[3-(6-methyl-2,6-diazaspiro[3.3]heptan-2-yl)spiro[5H-furo[3,4-b]pyridine-7,3′-azetidine]-1′-yl]methyl]morpholin-4-yl]pyrazolo[1,5-a]pyridine-7-carbonitrile], the IC50 turned out to be 64 nM. In the case of `C[C@@H]1CN(c2ccc(C#N)n3ncc(F)c23)C[C@H](CN2CC3(C2)OCc2cc(N4CC(C)(N)C4)cnc23)O1` [Example 33, 4-[(2S,6R)-2-[[3-(3-amino-3-methyl-azetidin-1-yl)spiro[5H-furo[3,4-b]pyridine-7,3′-azetidine]-1′-yl]methyl]-6-methyl-morpholin-4-yl]-3-fluoro-pyrazolo[1,5-a]pyridine-7-carbonitrile] it was 24 nM; in that of `C[C@@H]1CN(c2ccc(C#N)n3ncc(F)c23)C[C@H](CN2CC3(C2)OCc2cc(N4CC5(CNC5)C4)ccc23)O1` [Example 12, 4-[(2S,6R)-2-[[6-(2,6-diazaspiro[3.3]heptan-2-yl)spiro[1H-isobenzofuran-3,3′-azetidine]-1′-yl]methyl]-6-methyl-morpholin-4-yl]-3-fluoro-pyrazolo[1,5-a]pyridine-7-carbonitrile], 37 nM.

(Values after patent US12421252B2, “Spiro (isobenzofuranazetidine) compounds for the treatment of autoimmune disease” (Hoffmann-La Roche Inc., priority 2020, dated 2025).)
